The SangsterLogP compilation

Experiment: method code SF-HPLC, from Marrel, C.; Boss, G.; Van, H.; Testa, B.; Cooper, D.; Jenner, P.; Marsden, C. (1985). L-DOPA esters as potential prodrugs. Part. I. Physicochemical properties. Eur J Med Chem, 20(5)459-465.
Conditions: for logD: pH 7.4

Row | Compound | logP | logD
1 | COCC(C)OC(=O)[C@@H](N)Cc1ccc(O)c(O)c1 (stereo not given in full) | 0.08 | 
2 | N[C@@H](Cc1ccc(O)c(O)c1)C(=O)OCCOc1ccccc1 |  | 1.35
3 | N[C@@H](Cc1ccc(O)c(O)c1)C(=O)OCC1CCCCO1 (stereo not given in full) | 0.47 | 
4 | N[C@@H](Cc1ccc(O)c(O)c1)C(=O)OCCc1ccc(Cl)cc1 |  | 2.12

Continued, values first:

Row | logP | logD | Compound
5 | -0.49 |  | CC(O)COC(=O)[C@@H](N)Cc1ccc(O)c(O)c1 (stereo not given in full)
6 |  | 0.55 | CCCOC(=O)[C@@H](N)Cc1ccc(O)c(O)c1
7 |  | 1.53 | N[C@@H](Cc1ccc(O)c(O)c1)C(=O)OC1CCCCC1
8 |  | 0.01 | CCOC(=O)[C@@H](N)Cc1ccc(O)c(O)c1
9 |  | 1.5 | COc1ccc(CCOC(=O)[C@@H](N)Cc2ccc(O)c(O)c2)cc1
10 |  | 1.57 | N[C@@H](Cc1ccc(O)c(O)c1)C(=O)OCCc1ccccc1
